Assay [1] concerns the target T1, 9°N-III DNA polymerase (Thermococcus sp., UniProt Q56366, A485L/D141A/E143A/L408S/P410V/Y409A).
T1 construct: 6x histidine tag (C); made in house; host or cells: E. coli BL21
The assay is classed as biochemical, Thermococcus sp. 9° N-7 strain. The following applies: PEP assay, read-out: Average IC50 ± SD. The procedure: (§1) Accordingly, the end-point concentration, IC50 value, of the respective nucleotide was calculated.

For assay [2], the target named is T2, Bst-Lg (Bst Large fragment DNA polymerase) (Geobacillus stearothermophilus, UniProt P52026).
T2 construct: Bst Large fragment DNA polymerase; purchased New England Biolabs
T2 sequence (P52026 289-876 limits assumed): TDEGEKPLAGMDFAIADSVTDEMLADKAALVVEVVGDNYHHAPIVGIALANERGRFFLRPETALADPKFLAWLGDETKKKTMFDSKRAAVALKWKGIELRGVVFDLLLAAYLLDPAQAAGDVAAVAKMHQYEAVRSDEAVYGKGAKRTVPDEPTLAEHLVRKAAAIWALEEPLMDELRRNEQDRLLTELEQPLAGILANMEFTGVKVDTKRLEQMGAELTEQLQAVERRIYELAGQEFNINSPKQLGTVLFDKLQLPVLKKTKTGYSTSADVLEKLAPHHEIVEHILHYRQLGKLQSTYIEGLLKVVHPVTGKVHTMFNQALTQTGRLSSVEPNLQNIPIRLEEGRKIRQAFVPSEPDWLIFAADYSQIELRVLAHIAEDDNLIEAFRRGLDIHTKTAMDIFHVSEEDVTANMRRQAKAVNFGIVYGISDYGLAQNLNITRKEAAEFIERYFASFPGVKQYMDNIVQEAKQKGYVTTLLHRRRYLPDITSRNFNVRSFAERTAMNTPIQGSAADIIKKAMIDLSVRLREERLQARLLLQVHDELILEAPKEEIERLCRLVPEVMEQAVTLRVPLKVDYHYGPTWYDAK
Nature of the assay: Polymerase end point (PEP) assay. The format is biochemical. The following applies: read-out: Average IC50 ± SD. The procedure:
as §1

Assay [3] addresses THN (Therminator). Nature of the assay: Polymerase end point (PEP) assay. Particulars: read-out: Average IC50 ± SD. The format is biochemical. The procedure: as §1
Assay [4] addresses T3, Klenow (exo-) fragment DNA polymerase (Escherichia coli, UniProt P00582, D355A/E357A).
T3 construct: Klenow (exo-) fragment DNA polymerase; purchased New England Biolabs
The format is biochemical. Particulars: PEP assay, read-out: Average IC50 ± SD. The procedure:
as §1

In assay [5] the target is T4, 9°N-I DNA polymerase (Thermococcus sp., UniProt Q56366, A485L/D141A/E143A).
T4 construct: made in house; host or cells: E. coli BL21
T4 sequence (Q56366 whole entry D141A/E143A/A485L): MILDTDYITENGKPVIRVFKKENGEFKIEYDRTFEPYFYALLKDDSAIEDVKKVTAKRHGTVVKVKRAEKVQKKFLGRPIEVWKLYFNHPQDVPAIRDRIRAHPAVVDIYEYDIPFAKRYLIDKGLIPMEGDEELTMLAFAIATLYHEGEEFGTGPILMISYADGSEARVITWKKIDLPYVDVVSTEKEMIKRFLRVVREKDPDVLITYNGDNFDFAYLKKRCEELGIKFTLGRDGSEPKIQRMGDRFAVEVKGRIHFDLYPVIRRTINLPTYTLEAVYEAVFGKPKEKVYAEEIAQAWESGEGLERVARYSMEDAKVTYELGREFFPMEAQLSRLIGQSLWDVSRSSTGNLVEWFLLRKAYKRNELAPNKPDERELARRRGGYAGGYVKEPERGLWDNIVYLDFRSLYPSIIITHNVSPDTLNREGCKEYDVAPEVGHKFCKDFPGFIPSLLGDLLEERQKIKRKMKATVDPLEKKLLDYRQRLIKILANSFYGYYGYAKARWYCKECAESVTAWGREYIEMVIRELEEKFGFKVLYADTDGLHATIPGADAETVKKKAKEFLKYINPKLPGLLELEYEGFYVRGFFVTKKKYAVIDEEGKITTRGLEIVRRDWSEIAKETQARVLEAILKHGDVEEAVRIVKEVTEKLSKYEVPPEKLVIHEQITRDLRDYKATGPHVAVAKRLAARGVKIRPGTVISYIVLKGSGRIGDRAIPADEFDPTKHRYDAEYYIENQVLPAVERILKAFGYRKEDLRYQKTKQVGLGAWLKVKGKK
The experiment in a line: Pre-steady state kinetic assay. The assay is classed as biochemical, Thermococcus sp. 9° N-7 strain. The following applies: 30° C. The procedure: The rate of incorporation of the correct base onto the 25/36 mer duplex was determined in a reaction. The reaction was initiated by combining the solution containing the enzyme and DNA substrate with the second solution containing Mg^2+/dNTP. The reaction was quenched with 0.25 M EDTA (final concentration), pH 8.0. A rapid quench instrument (KinTek Instrument Corp., State College, Pa.) was used for reaction times ranging from 20 ms to 20 s.

Molecules are shown by their SMILES.

T3 sequence (P00582 324-928 D355A/E357A): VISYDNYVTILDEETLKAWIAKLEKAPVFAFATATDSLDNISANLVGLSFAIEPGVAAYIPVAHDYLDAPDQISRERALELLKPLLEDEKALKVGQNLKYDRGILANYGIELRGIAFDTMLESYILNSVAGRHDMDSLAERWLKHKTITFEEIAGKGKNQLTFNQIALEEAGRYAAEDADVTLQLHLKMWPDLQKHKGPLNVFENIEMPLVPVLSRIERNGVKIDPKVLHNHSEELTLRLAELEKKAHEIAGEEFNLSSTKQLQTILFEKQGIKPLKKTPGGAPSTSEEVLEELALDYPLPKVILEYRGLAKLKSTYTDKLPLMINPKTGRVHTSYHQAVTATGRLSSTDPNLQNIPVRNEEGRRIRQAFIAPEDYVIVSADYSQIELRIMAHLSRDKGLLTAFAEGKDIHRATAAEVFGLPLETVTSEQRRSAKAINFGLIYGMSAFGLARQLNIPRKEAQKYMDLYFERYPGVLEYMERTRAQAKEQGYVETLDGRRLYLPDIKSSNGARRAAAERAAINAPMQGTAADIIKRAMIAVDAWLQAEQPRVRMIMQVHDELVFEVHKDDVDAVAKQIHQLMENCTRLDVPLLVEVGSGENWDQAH
T1 sequence (Q56366 whole entry D141A/E143A/L408S/Y409A/P410V/A485L): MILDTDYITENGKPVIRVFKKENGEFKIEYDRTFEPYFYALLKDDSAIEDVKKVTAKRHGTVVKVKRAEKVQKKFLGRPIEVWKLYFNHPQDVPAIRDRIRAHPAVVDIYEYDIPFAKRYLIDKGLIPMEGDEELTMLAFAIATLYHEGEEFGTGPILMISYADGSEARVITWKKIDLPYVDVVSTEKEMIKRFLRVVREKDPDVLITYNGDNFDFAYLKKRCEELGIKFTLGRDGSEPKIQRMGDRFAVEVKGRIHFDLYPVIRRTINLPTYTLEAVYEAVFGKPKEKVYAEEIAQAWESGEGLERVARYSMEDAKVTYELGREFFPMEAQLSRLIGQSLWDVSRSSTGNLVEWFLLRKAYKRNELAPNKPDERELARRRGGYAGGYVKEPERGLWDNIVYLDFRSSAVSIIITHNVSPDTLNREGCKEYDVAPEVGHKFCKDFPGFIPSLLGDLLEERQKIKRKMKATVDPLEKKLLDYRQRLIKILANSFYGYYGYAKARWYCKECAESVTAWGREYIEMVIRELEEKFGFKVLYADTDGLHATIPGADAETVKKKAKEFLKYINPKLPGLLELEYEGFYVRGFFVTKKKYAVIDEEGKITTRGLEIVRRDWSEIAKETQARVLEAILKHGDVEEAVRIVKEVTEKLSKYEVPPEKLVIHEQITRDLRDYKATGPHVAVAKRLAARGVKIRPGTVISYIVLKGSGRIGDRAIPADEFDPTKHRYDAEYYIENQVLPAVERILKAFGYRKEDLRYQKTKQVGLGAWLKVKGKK

For `Nc1ncnc2c1ncn2[C@H]1C[C@H](O)[C@@H](COP(=O)(O)OP(=O)(O)OP(=O)(O)O)O1` [dATP], the IC50 (as a rule, the point on the concentration scale where inhibition reaches its midpoint) in assay [1] came to 14 ± 0.6 nM; in assay [2] it was 2.54 ± 0.067 nM; in assay [3], 0.526 ± 0.008 nM; in assay [4], 0.589 ± 0.008 nM. In assay [5], the dissociation constant (Kd) (in general, the constant that tells how readily two partners part at equilibrium) turned out to be 8000 nM. Moreover, the kpol in assay [5] was 132.4 s⁻¹. For the same compound, the kpol/Kd in assay [5] turned out to be 1.655e+07 M⁻¹ s⁻¹.

(Values after US10662413B2, “Recombinant DNA polymerase for improved incorporation of nucleotide analogues” (PERSONAL GENOMICS, INC., priority 2016, dated 2020).)
